Data taken from patent US11787775B2, “Therapeutic compounds and methods of use” (priority 2020, dated 2023).

Experiments:
Type in all cases: binding
TEAD3 YAP50-100 = TEAD3 YAP50-100 (Homo sapiens (Human), UniProt Q99594); assay: TEAD-YAP protein-protein interaction HTRF assay; conditions: TEAD3 YAP50-100 HTRF combined EC50, 30 mins incubation with compound
Description: (§1) Purified His-tagged TEAD protein (YAP Binding Domain, amino acids 217-447) is pre-incubated with Europium labelled anti-His antibody tracer (Perkin Elmer Cat #AD0110). Small molecule Inhibitors are then incubated with the TEAD-Eu protein complex for 30 minutes or 4 hours to allow for binding to TEAD protein. Biotinylated YAP peptide for TEAD-YAP assays (AA's 50-100) or biotinylated TAZ peptide for TEAD-TAZ assays (AA's 13-57) that has been pre-incubated with streptavidin −xl665 acceptor (CIS-Bio Cat #610SAXAC) or is added to the compound-TEAD mix. The TEAD-YAP-inhibitor mixture is then incubated for 60 minutes at room temperature. All reactions are carried out in a polystyrene plate. After 60 minutes, the plate is read on a plate reader using TR-FRET mode with wavelengths of 665 nm/615 nm. If YAP or TAZ binds to TEAD as expected, a TR-FRET signal results from the proximity of YAP or TAZ and TEAD after binding. If an inhibitor such as peptide 17 (Selleckchem Cat #S8164) interferes with YAP-TEAD or TAZ-TEAD binding, the disruption of the YAP or TAZ:TEAD interaction results in a decrease in TR-FRET signal. The potency of compounds as YAP:TEAD or TAZ:TEAD protein-protein interaction (PPi) inhibitors is determined by an IC50 or EC50 value generated using a non-linear four parameter curve fit. The extent to which representative examples of the disclosed compounds are able to inhibit interaction between TEAD1, TEAD2, TEAD3 or TEAD4 and YAP truncated from amino acids 50-100 or TAZ truncated from amino acids 13-57 as measured by Homogeneous Time Resolved Fluorescence (HTRF) to generate EC50 and IC50 data.
(§2) Note that the “Compound Number” in Table 4 corresponds to the “Compound Number” in Table 1. […]

TEAD1 YAP50-100 = TEAD1 YAP50-100 (Homo sapiens (Human), UniProt P28347); assay: TEAD-YAP protein-protein interaction HTRF assay; conditions: TEAD1 YAP50-100 HTRF combined EC50, 30 mins incubation with compound
Sequence of TEAD1 YAP50-100 (P28347 209-426): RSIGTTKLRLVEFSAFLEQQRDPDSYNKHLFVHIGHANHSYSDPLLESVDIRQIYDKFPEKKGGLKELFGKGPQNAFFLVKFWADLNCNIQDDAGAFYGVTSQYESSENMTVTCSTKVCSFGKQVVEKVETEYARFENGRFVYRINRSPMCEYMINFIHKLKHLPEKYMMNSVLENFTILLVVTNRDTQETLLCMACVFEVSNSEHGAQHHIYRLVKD
Description: as §1, §2

TEAD2 YAP50-100 = TEAD2 YAP50-100 (Homo sapiens (Human), UniProt Q15562); assay: TEAD-YAP protein-protein interaction HTRF assay; conditions: TEAD2 YAP50-100 HTRF combined EC50, 30 mins incubation with compound
Sequence of TEAD2 YAP50-100 (Q15562 217-447): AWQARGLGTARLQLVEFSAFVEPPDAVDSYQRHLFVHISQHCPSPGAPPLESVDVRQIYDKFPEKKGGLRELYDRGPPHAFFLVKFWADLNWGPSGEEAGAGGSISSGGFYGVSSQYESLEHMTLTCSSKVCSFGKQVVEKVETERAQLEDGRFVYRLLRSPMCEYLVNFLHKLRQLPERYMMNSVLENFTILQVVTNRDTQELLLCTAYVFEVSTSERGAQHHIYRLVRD
Description: as §1, §2

TEAD4 YAP50-100 = TEAD4 YAP50-100 (Homo sapiens (Human), UniProt Q15561); assay: TEAD-YAP protein-protein interaction HTRF assay; conditions: TEAD4 YAP50-100 HTRF combined EC50, 30 mins incubation with compound
Sequence of TEAD4 YAP50-100 (Q15561 217-434): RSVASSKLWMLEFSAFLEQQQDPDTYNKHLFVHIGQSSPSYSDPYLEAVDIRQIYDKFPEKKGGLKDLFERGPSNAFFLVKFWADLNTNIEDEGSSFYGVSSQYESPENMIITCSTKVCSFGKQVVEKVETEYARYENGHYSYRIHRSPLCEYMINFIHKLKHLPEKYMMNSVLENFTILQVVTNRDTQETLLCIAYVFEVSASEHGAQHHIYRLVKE
Description: as §1, §2

TEAD1 = TEAD1 (Homo sapiens (Human), UniProt P28347); assay: TEAD lipid pocket TR-FRET (Lipid HTRF) probe competition assay; conditions: 30 mins incubation with compound; read-out: Lipid HTRF TEAD1 IC50
Sequence of TEAD1 (P28347 whole entry, species assumed): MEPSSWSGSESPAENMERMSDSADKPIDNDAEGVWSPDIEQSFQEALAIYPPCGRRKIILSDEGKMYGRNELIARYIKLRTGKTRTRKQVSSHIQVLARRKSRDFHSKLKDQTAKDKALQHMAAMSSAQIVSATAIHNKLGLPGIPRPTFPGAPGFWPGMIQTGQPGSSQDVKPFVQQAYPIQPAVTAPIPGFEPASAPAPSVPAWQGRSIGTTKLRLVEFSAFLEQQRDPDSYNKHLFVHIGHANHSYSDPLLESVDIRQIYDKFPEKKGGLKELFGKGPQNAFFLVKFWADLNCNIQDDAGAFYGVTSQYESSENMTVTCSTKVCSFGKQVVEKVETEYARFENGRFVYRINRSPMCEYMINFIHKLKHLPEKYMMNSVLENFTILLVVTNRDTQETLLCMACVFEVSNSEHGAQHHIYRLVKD
Description: (§3) His-tagged TEAD proteins are pre-incubated with TEAD project compounds for 30 minutes or 4 hours at room temperature. Biotinylated lipid pocket probes are then added to the TEAD/Compound mixture and incubated for 60 minutes at room temperature. The lipid pocket probe competes with the test compound for the TEAD lipid pocket until equilibrium is reached. After 60 minutes, Europium labelled anti-His (Perkin Elmer #ADO 110) and XL665 labelled streptavidin (CIS Bio 610SAXAC) are added to the TEAD/test compound/lipid pocket mixture and incubated for 30 minutes or 4 hours. […] If a TEAD lipid pocket binder such as binds and displaces the lipid pocket probe, the disruption of the TEAD:probe interaction results in a decrease in TR-FRET signal. The potency of compounds as TEAD lipid pocket binders is determined by IC50 value generated using a non-linear 4 parameter curve fit.
(§4) Note that the “Compound Number” in Table 2 and Table 3 corresponds to the “Compound Number” in Table 1.

TEAD4 = TEAD4 (Homo sapiens (Human), UniProt Q15561); assay: as above; conditions: 30 mins incubation with compound; read-out: Lipid HTRF TEAD4 IC50
Sequence of TEAD4 (Q15561 whole entry, species assumed): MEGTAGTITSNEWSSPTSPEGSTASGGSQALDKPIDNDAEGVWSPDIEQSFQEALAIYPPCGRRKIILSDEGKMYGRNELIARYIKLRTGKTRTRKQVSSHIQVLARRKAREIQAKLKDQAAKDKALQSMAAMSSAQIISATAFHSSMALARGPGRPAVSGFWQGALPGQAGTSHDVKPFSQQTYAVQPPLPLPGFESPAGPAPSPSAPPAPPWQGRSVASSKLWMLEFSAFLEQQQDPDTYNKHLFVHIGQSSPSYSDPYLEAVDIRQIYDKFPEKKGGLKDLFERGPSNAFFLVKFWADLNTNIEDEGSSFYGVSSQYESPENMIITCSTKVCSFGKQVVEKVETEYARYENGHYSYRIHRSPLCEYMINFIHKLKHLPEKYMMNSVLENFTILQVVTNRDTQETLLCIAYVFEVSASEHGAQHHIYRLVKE
Description: as §3, §4

TEAD3 = TEAD3 (Homo sapiens (Human), UniProt Q99594); assay: as above; conditions: 30 mins incubation with compound
Sequence of TEAD3 (Q99594 whole entry, species assumed): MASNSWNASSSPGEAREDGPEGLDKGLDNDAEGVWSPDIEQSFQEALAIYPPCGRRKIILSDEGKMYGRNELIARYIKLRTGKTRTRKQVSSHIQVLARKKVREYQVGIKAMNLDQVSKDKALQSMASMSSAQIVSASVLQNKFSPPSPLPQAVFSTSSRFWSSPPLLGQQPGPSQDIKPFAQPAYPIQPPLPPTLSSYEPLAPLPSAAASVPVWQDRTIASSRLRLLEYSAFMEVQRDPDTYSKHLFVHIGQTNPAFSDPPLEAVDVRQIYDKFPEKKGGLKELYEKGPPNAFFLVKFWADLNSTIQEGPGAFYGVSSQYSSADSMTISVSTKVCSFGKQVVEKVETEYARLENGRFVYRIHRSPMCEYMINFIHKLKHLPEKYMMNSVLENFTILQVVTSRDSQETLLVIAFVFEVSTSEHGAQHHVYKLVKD
Description: as §3, §4

TEAD2 = TEAD2 (Homo sapiens (Human), UniProt Q15562); assay: as above; conditions: 30 mins incubation with compound; read-out: Lipid HTRF TEAD2 IC50
Sequence of TEAD2 (Q15562 whole entry): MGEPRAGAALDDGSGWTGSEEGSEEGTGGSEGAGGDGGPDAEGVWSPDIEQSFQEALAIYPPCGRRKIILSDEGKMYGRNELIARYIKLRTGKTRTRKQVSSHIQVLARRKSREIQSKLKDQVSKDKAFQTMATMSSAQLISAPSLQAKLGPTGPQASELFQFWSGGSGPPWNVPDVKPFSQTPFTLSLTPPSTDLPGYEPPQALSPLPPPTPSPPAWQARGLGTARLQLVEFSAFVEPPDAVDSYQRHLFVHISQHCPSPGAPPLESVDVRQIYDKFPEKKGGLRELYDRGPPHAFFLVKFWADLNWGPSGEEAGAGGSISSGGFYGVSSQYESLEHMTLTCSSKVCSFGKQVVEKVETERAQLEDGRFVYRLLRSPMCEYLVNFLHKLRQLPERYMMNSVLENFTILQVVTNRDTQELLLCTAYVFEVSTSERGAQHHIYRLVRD
Description: as §3, §4

Sequence of TEAD3 YAP50-100 (Q99594 218-435): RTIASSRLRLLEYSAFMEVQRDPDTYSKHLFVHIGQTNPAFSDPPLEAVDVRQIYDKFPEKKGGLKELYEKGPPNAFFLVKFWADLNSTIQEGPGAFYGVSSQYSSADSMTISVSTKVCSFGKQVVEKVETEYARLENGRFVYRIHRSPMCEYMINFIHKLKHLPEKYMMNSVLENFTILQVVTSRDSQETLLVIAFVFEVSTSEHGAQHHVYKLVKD

SMILES: C=C(CNc1cc(-c2ccc(C(F)(F)F)cc2)c2c(c1C#N)CCO2)C(=O)O [Compound 15, 2-[[[4-cyano-7-[4-(trifluoromethyl)phenyl]-2,3-dihydrobenzofuran-5-yl]amino]methyl]prop-2-enoic acid]
- EC50 (TEAD3 YAP50-100): 11 µM
- EC50 (TEAD1 YAP50-100): 40 nM
- EC50 (TEAD2 YAP50-100): 380 nM
- EC50 (TEAD4 YAP50-100): 250 nM
- IC50 (TEAD1): 50 nM
- IC50 (TEAD4): 110 nM
- IC50 (TEAD3): 3.4 µM
- IC50 (TEAD2): 530 nM

SMILES: C=C(CNc1cc(-c2ccc(OC(F)(F)F)cc2)c2c(c1C#N)CCO2)C(=O)O [Compound 18, 2-[[[4-cyano-7-[4-(trifluoromethoxy)phenyl]-2,3-dihydrobenzofuran-5-yl]amino]methyl]prop-2-enoic acid]
- EC50 (TEAD3 YAP50-100): 7.8 µM
- EC50 (TEAD1 YAP50-100): 20 nM
- EC50 (TEAD2 YAP50-100): 90 nM
- EC50 (TEAD4 YAP50-100): 60 nM
- IC50 (TEAD1): 30 nM
- IC50 (TEAD4): 30 nM
- IC50 (TEAD3): 2.5 µM
- IC50 (TEAD2): 140 nM

SMILES: C=C(CNc1cc(-c2ccc(C(C)(F)F)cc2)c2c(c1C#N)CCO2)C(=O)O [Compound 19, 2-[[[4-cyano-7-[4-(1,1-difluoroethyl)phenyl]-2,3-dihydrobenzofuran-5-yl]amino]methyl]prop-2-enoic acid]
- EC50 (TEAD3 YAP50-100): 15 µM
- EC50 (TEAD1 YAP50-100): 40 nM
- EC50 (TEAD2 YAP50-100): 190 nM
- EC50 (TEAD4 YAP50-100): 230 nM
- IC50 (TEAD1): 50 nM
- IC50 (TEAD4): 110 nM
- IC50 (TEAD3): 6.4 µM
- IC50 (TEAD2): 350 nM

SMILES: C=C(CNc1nc2c(c(-c3ccc(C(C)C)cc3)n1)OCC2)C(=O)O [Compound 20, 2-[[[4-(4-isopropylphenyl)-6,7-dihydrofuro[3,2-d]pyrimidin-2-yl]amino]methyl]prop-2-enoic acid]
- EC50 (TEAD3 YAP50-100): > 50 µM
- EC50 (TEAD1 YAP50-100): 150 nM
- EC50 (TEAD2 YAP50-100): 40 nM
- EC50 (TEAD4 YAP50-100): 40 nM
- IC50 (TEAD1): 200 nM
- IC50 (TEAD4): 20 nM
- IC50 (TEAD3): 3.8 µM
- IC50 (TEAD2): 70 nM

SMILES: C=C(CNc1cc(-c2ccc(C(C)C)cc2)c2c(c1F)CCO2)C(=O)O [Compound 21, 2-[[[4-fluoro-7-(4-isopropylphenyl)-2,3-dihydrobenzofuran-5-yl]amino]methyl]prop-2-enoic acid]
- EC50 (TEAD3 YAP50-100): > 50 µM
- EC50 (TEAD1 YAP50-100): 40 nM
- EC50 (TEAD2 YAP50-100): < 10 nM
- EC50 (TEAD4 YAP50-100): 30 nM
- IC50 (TEAD1): 60 nM
- IC50 (TEAD4): 20 nM
- IC50 (TEAD3): 4 µM
- IC50 (TEAD2): 70 nM

SMILES: C=C(CNc1nc(-c2ccc(C(C)C)cc2)c2c(c1C#N)CCO2)C(=O)O [Compound 22, 2-[[[4-cyano-7-(4-isopropylphenyl)-2,3-dihydrofuro[2,3-c]pyridin-5-yl]amino]methyl]prop-2-enoic acid]
- EC50 (TEAD3 YAP50-100): > 50 µM
- EC50 (TEAD1 YAP50-100): 60 nM
- EC50 (TEAD2 YAP50-100): 60 nM
- EC50 (TEAD4 YAP50-100): 100 nM
- IC50 (TEAD1): 90 nM
- IC50 (TEAD4): 50 nM
- IC50 (TEAD3): 15 µM
- IC50 (TEAD2): 100 nM

SMILES: C=C(CNc1cc(-c2ccc(C(C)(F)F)cc2)c2ncsc2c1C#N)C(=O)O [Compound 24, 2-[[[7-cyano-4-[4-(1,1-difluoroethyl)phenyl]-1,3-benzothiazol-6-yl]amino]methyl]prop-2-enoic acid]
- EC50 (TEAD3 YAP50-100): 15 µM
- EC50 (TEAD1 YAP50-100): 80 nM
- EC50 (TEAD2 YAP50-100): 260 nM
- EC50 (TEAD4 YAP50-100): > 50000 nM
- IC50 (TEAD1): 160 nM
- IC50 (TEAD4): 370 nM
- IC50 (TEAD3): 20 µM
- IC50 (TEAD2): 740 nM

SMILES: C=C(CNc1cnc(OC)c(/C=C/[C@H]2CC[C@H](C(F)(F)F)CC2)c1)C(=O)O [Compound 25, 2-[[[6-methoxy-5-[(E)-2-[trans-4-(trifluoromethyl)cyclohexyl]vinyl]-3-pyridyl]amino]methyl]prop-2-enoic acid]
- EC50 (TEAD3 YAP50-100): > 50 µM
- EC50 (TEAD1 YAP50-100): > 50000 nM
- EC50 (TEAD2 YAP50-100): > 50000 nM
- EC50 (TEAD4 YAP50-100): > 50000 nM
- IC50 (TEAD1): 580 nM
- IC50 (TEAD4): 140 nM
- IC50 (TEAD3): 1.25 µM
- IC50 (TEAD2): 270 nM

SMILES: C=C(CNc1cc(-c2c(F)cc(C(C)C)cc2F)c2c(c1C#N)CCO2)C(=O)O [Compound 28, 2-[[[4-cyano-7-(2,6-difluoro-4-isopropyl-phenyl)-2,3-dihydrobenzofuran-5-yl]amino]methyl]prop-2-enoic acid]
- EC50 (TEAD3 YAP50-100): > 50 µM
- EC50 (TEAD1 YAP50-100): > 50000 nM
- EC50 (TEAD2 YAP50-100): > 50000 nM
- EC50 (TEAD4 YAP50-100): > 50000 nM
- IC50 (TEAD1): 690 nM
- IC50 (TEAD4): 320 nM
- IC50 (TEAD3): 16 µM
- IC50 (TEAD2): 350 nM

SMILES: C=C(CNc1cc(-c2ccc(C(C)C)cc2F)c2c(c1C#N)CCO2)C(=O)O [Compound 30, 2-[[[4-cyano-7-(2-fluoro-4-isopropyl-phenyl)-2,3-dihydrobenzofuran-5-yl]amino]methyl]prop-2-enoic acid]
- EC50 (TEAD3 YAP50-100): 8.2 µM
- EC50 (TEAD1 YAP50-100): 30 nM
- EC50 (TEAD2 YAP50-100): 40 nM
- EC50 (TEAD4 YAP50-100): 40 nM
- IC50 (TEAD1): 50 nM
- IC50 (TEAD4): 30 nM
- IC50 (TEAD3): 5.9 µM
- IC50 (TEAD2): 100 nM

SMILES: C=C(CNc1cc(-c2ccc(C(C)C)cc2)c2c(c1C(N)=O)CCO2)C(=O)O [Compound 34, 2-[[[4-carbamoyl-7-(4-isopropylphenyl)-2,3-dihydrobenzofuran-5-yl]amino]methyl]prop-2-enoic acid]
- EC50 (TEAD3 YAP50-100): > 50 µM
- EC50 (TEAD1 YAP50-100): 1000 nM
- EC50 (TEAD2 YAP50-100): 580 nM
- EC50 (TEAD4 YAP50-100): 700 nM
- IC50 (TEAD1): 1800 nM
- IC50 (TEAD4): 330 nM
- IC50 (TEAD3): > 50 µM
- IC50 (TEAD2): 970 nM

SMILES: C=C(CNc1cc(-c2ccc(OC(F)(F)F)cc2)c2ncsc2c1C#N)C(N)=O [Compound 42, 2-[[[7-cyano-4-[4-(trifluoromethoxy)phenyl]-1,3-benzothiazol-6-yl]amino]methyl]prop-2-enamide]
- EC50 (TEAD3 YAP50-100): > 50 µM
- EC50 (TEAD1 YAP50-100): > 50000 nM
- EC50 (TEAD2 YAP50-100): > 50000 nM
- EC50 (TEAD4 YAP50-100): > 50000 nM
- IC50 (TEAD1): 370 nM
- IC50 (TEAD4): 260 nM
- IC50 (TEAD3): > 50 µM
- IC50 (TEAD2): 140 nM

SMILES: C=C(CNc1cc(-c2ccc(C(C)C)cn2)c2c(c1C#N)CCO2)C(=O)O [Compound 47, 2-[[[4-cyano-7-(5-isopropyl-2-pyridyl)-2,3-dihydrobenzofuran-5-yl]amino]methyl]prop-2-enoic acid]
- EC50 (TEAD3 YAP50-100): > 50 µM
- EC50 (TEAD1 YAP50-100): 1900 nM
- EC50 (TEAD2 YAP50-100): 1900 nM
- EC50 (TEAD4 YAP50-100): 3400 nM
- IC50 (TEAD1): 2200 nM
- IC50 (TEAD4): 1500 nM
- IC50 (TEAD3): > 50 µM
- IC50 (TEAD2): 2700 nM

SMILES: C=C(CNc1cc(-c2ccc(C(C)C)cc2)c2c(c1S(C)(=O)=O)CCO2)C(=O)O [Compound 50, 2-[[[7-(4-isopropylphenyl)-4-methylsulfonyl-2,3-dihydrobenzofuran-5-yl]amino]methyl]prop-2-enoic acid]
- EC50 (TEAD3 YAP50-100): 17 µM
- EC50 (TEAD1 YAP50-100): 530 nM
- EC50 (TEAD2 YAP50-100): 80 nM
- EC50 (TEAD4 YAP50-100): 2000 nM
- IC50 (TEAD1): 740 nM
- IC50 (TEAD4): 590 nM
- IC50 (TEAD3): 44.5 µM
- IC50 (TEAD2): 100 nM
